# Assays:
# [1] = tested on: EGFR-Del19/T790M/C797S; experiment: EGFR degradation HTRF assay in H1975-clone #28 cells; format: cell-based; settings: H1975-clone #28 (Del19/T790M/C797S) cells, 16 h treatment; for DC50: IC50 (DC50), read-out: DC50(nM) H1975 # 28 DTC; for Dmax (%) H1975 # 28 DTC: maximum percentage of inhibition (degradation)
# Procedure, shortened: (§1)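 H1975 clones with endogenous EGFR knocked out, homozygously expressing lentiviral L858R/T790M/C797S (#25) or Del19/T790M/C797S (#28), treated 16 h at 37° C with 8 doses from 10 uM, 5-fold, in 0.2% DMSO. EGFR in lysates measured by HTRF overnight; DC50 from four-parameter fit of % degradation.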
# [2] = molecular target: T1, EGFR-L858R/T790M/C797S (Homo sapiens, UniProt P00533, C797S/L858R/T790M); experiment: EGFR degradation HTRF assay in H1975-clone #25 cells; format: cell-based; settings: 16 h treatment; for DC50: H1975-clone #25 (L858R/T790M/C797S) cells, IC50 (DC50), read-out: DC50(nM) H1975 # 25-LTC; for Dmax: NCI-H1975, H1975-clone #25 (L858R/T790M/C797S) cells, maximum percentage of inhibition (degradation), read-out: Dmax (%) H1975 # 25-LTC
# T1 construct: expressed in transfected cells; host or cells: H1975-clone #25 (lentiviral over-expression, endogenous EGFR knocked out)
# T1 sequence (P00533 25-1210 T790M/C797S/L858R): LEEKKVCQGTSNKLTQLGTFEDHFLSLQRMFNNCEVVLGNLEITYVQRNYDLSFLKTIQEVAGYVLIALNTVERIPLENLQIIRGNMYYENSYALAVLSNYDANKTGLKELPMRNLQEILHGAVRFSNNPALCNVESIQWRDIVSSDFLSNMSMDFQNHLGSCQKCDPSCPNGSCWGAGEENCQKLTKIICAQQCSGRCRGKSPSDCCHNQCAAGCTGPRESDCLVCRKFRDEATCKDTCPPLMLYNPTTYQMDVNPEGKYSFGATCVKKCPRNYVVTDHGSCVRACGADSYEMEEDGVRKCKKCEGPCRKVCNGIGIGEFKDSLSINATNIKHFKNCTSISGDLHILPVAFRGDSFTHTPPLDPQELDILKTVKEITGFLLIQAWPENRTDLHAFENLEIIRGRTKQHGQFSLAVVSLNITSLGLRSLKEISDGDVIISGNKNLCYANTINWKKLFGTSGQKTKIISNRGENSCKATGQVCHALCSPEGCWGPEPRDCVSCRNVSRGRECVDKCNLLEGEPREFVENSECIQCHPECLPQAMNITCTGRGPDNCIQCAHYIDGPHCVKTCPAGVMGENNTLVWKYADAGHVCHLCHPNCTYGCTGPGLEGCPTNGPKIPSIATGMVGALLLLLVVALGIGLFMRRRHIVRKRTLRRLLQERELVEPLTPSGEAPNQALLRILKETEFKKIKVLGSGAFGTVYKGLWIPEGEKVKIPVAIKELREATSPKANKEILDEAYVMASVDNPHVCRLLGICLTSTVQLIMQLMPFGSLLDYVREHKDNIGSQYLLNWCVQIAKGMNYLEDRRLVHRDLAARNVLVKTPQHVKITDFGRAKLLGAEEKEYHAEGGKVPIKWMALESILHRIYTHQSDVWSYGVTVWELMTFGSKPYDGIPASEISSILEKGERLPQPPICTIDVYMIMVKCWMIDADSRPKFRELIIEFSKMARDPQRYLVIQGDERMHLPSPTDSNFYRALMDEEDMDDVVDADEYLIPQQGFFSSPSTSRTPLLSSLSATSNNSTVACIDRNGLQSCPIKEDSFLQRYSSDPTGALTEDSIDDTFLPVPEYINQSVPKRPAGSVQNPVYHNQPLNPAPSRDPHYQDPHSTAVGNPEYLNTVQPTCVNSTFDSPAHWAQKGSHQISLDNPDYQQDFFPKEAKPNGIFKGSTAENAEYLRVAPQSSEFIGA
# Procedure, shortened: as §1
SMILES,DC50 [1] [nM],DC50 [2] [nM],Dmax [2] [%],Dmax (%) H1975 # 28 DTC [1] [%]
"CCc1cc(Nc2ncc(Cl)c(Nc3ccc4nc(C)c(F)cc4c3P(C)(C)=O)n2)c(OC)cc1N1CCC(N2CCC(N3CCN(c4cc(F)c([C@H]5CCC(=O)NC5=O)c(F)c4)CC3)CC2)CC1 [Example 12, (R)-3-(4-(4-(1′-(4-((5-chloro-4-((5-(dimethylphosphoryl)-3-fluoro-2-methylquinolin-6-yl)amino)pyrimidin-2-yl)amino)-2-ethyl-5-methoxyphenyl)-[1,4′-bipiperidin]-4-yl)piperazin-1-yl)-2,6-difluorophenyl)piperidine-2,6-dione]",2.9,2.5,92,91
"CCc1cc(Nc2ncc(Br)c(Nc3ccc4nc(C)c(F)cc4c3P(C)(C)=O)n2)c(OC)cc1N1CCC2(CC1)CCN(C1CCN(c3cc(F)c([C@H]4CCC(=O)NC4=O)c(F)c3)CC1)CC2 [Example 1, (R)-3-(4-(4-(9-(4-((5-bromo-4-((5-(dimethylphosphoryl)-3-fluoro-2-methylquinolin-6-yl)amino)pyrimidin-2-yl)amino)-2-ethyl-5-methoxyphenyl)-3,9-diazaspiro[5.5]undecan-3-yl)piperidin-1-yl)-2,6-difluorophenyl)piperidine-2,6-dione]",2.2,3.4,92,89
"CCc1cc(Nc2ncc(Br)c(Nc3ccc4nc(C)c(F)cc4c3P(C)(C)=O)n2)c(OC)cc1N1CCC(N2CC3(CCN(c4cc(F)c([C@H]5CCC(=O)NC5=O)c(F)c4)CC3)C2)CC1 (single isomer, unassigned) [Example 18]",1.7,1.7,92,91
"CCc1cc(Nc2ncc(Cl)c(Nc3ccc4nc(C)c(F)cc4c3P(C)(C)=O)n2)c(OC)cc1N1CCC2(CCN(CCc3cc(F)c([C@H]4CCC(=O)NC4=O)c(F)c3)CC2)CC1 [Example 41, (R)-3-(4-(2-(9-(4-((5-chloro-4-((5-(dimethylphosphoryl)-3-fluoro-2-methylquinolin-6-yl)amino)pyrimidin-2-yl)amino)-2-ethyl-5-methoxyphenyl)-3,9-diazaspiro[5.5]undecan-3-yl)ethyl)-2,6-difluorophenyl)piperidine-2,6-dione]",4.2,4.2,88,86
"COc1cc(N2CCC3(CC2)CCN(C2CCN(c4cc(F)c([C@H]5CCC(=O)NC5=O)c(F)c4)CC2)CC3)c(C)cc1Nc1ncc(Br)c(Nc2ccc3nc(C)c(F)cc3c2P(C)(C)=O)n1 [Example 37, (R)-3-(4-(4-(9-(4-((5-bromo-4-((5-(dimethylphosphoryl)-3-fluoro-2-methylquinolin-6-yl)amino)pyrimidin-2-yl)amino)-5-methoxy-2-methylphenyl)-3,9-diazaspiro[5.5]undecan-3-yl)piperidin-1-yl)-2,6-difluorophenyl)piperidine-2,6-dione]",3.3,1.4,95,90
"CCc1cc(Nc2ncc(Br)c(Nc3ccc4nc(C)c(F)cc4c3P(C)(C)=O)n2)c(OC)cc1N1CCC2(CCN(CCNc3cc(F)c([C@H]4CCC(=O)NC4=O)c(F)c3)CC2)CC1 (single isomer, unassigned) [Example 43]",3.7,4.6,90,87
"CCOc1cc(N2CCC(N3CCN(C4CCN(c5cc(F)c([C@H]6CCC(=O)NC6=O)c(F)c5)CC4)CC3)CC2)c(CC)cc1Nc1ncc(Cl)c(Nc2ccc3nc(C)c(F)cc3c2P(C)(C)=O)n1 [Example 54, (R)-3-(4-(4-(4-(1-(4-((5-chloro-4-((5-(dimethylphosphoryl)-3-fluoro-2-methylquinolin-6-yl)amino)pyrimidin-2-yl)amino)-5-ethoxy-2-ethylphenyl)piperidin-4-yl)piperazin-1-yl)piperidin-1-yl)-2,6-difluorophenyl)piperidine-2,6-dione]",3.6,3.6,88,86
"CCOc1cc(N2CCC(N3CC(N4CCC(c5cc(F)c([C@H]6CCC(=O)NC6=O)c(F)c5)CC4)C3)CC2)c(CC)cc1Nc1ncc(Cl)c(Nc2ccc3nc(C)c(F)cc3c2P(C)(C)=O)n1 [Example 15, (R)-3-(4-(1-(1-(1-(4-((5-chloro-4-((5-(dimethylphosphoryl)-3-fluoro-2-methylquinolin-6-yl)amino)pyrimidin-2-yl)amino)-5-ethoxy-2-ethylphenyl)piperidin-4-yl)azetidin-3-yl)piperidin-4-yl)-2,6-difluorophenyl)piperidine-2,6-dione]",2.7,3.3,94,95
"CCc1ccc2c(P(C)(C)=O)c(Nc3nc(Nc4cc(CC)c(N5CCC(N6CCN(C7CCN(c8cc(F)c([C@H]9CCC(=O)NC9=O)c(F)c8)CC7)CC6)CC5)cc4OC)ncc3Br)ccc2n1 (single isomer, unassigned) [Example 10]",2.7,4.9,91,88

# Stronger by DC50 [1], values ahead:
DC50 [1] [nM],DC50 [2] [nM],Dmax [2] [%],SMILES,Dmax (%) H1975 # 28 DTC [1] [%]
1.6,3.1,91,"CCc1ccc2c(P(C)(C)=O)c(Nc3nc(Nc4cc(CC)c(N5CCC(N6CC7(CCN(c8cc(F)c([C@H]9CCC(=O)NC9=O)c(F)c8)CC7)C6)CC5)cc4OC)ncc3Br)ccc2n1 [Example 58, (R)-3-(4-(2-(1-(4-((5-bromo-4-((5-(dimethylphosphoryl)-2-ethylquinolin-6-yl)amino)pyrimidin-2-yl)amino)-2-ethyl-5-methoxyphenyl)piperidin-4-yl)-2,7-diazaspiro[3.5]nonan-7-yl)-2,6-difluorophenyl)piperidine-2,6-dione]",91
1.1,1.5,95,"CCc1cc(Nc2ncc(Br)c(Nc3ccc4nc(C)c(F)cc4c3P(C)(C)=O)n2)c(OC)cc1N1CC2(C1)CN(C1CCN(c3cc(F)c([C@H]4CCC(=O)NC4=O)c(F)c3)CC1)C2 [Example 64, (R)-3-(4-(4-(6-(4-((5-bromo-4-((5-(dimethylphosphoryl)-3-fluoro-2-methylquinolin-6-yl)amino)pyrimidin-2-yl)amino)-2-ethyl-5-methoxyphenyl)-2,6-diazaspiro[3.3]heptan-2-yl)piperidin-1-yl)-2,6-difluorophenyl)piperidine-2,6-dione]",94
0.9,1.2,94,"CCc1cc(Nc2ncc(Cl)c(Nc3ccc4nc(C)c(F)cc4c3P(C)(C)=O)n2)c(OC)cc1N1CC2(C1)CN(C1CCN(c3cc(F)c([C@H]4CCC(=O)NC4=O)c(F)c3)CC1)C2 [Example 61, (R)-3-(4-(4-(6-(4-((5-chloro-4-((5-(dimethylphosphoryl)-3-fluoro-2-methylquinolin-6-yl)amino)pyrimidin-2-yl)amino)-2-ethyl-5-methoxyphenyl)-2,6-diazaspiro[3.3]heptan-2-yl)piperidin-1-yl)-2,6-difluorophenyl)piperidine-2,6-dione]",94
0.6,0.9,83,"CCc1cc(Nc2ncc(Br)c(Nc3ccc4nc(C)c(F)cc4c3P(C)(C)=O)n2)c(OC)cc1N1CCC(N2CCN(C3CN(c4cccc5c4n(C)c(=O)n5C4CCC(=O)NC4=O)C3)CC2)CC1 (stereo not shown) [Example 22, 3-(4-(3-(4-(1-(4-((5-bromo-4-((5-(dimethylphosphoryl)-3-fluoro-2-methylquinolin-6-yl)amino)pyrimidin-2-yl)amino)-2-ethyl-5-methoxyphenyl)piperidin-4-yl)piperazin-1-yl)azetidin-1-yl)-3-methyl-2-oxo-2,3-dihydro-1H-benzo[d]imidazol-1-yl)piperidine-2,6-dione]",74
0.6,1.6,87,"CCc1cc(Nc2ncc(Br)c(Nc3ccc4nc(C)c(F)cc4c3P(C)(C)=O)n2)c(OC)cc1N1CCC(N2CCN(C3CN(c4cc(F)c([C@H]5CCC(=O)NC5=O)c(F)c4)C3)CC2)CC1 [Example 8, (R)-3-(4-(3-(4-(1-(4-((5-bromo-4-((5-(dimethylphosphoryl)-3-fluoro-2-methylquinolin-6-yl)amino)pyrimidin-2-yl)amino)-2-ethyl-5-methoxyphenyl)piperidin-4-yl)piperazin-1-yl)azetidin-1-yl)-2,6-difluorophenyl)piperidine-2,6-dione]",80
0.6,0.9,80,"CCc1ncc2c(P(C)(C)=O)c(Nc3nc(Nc4cc(CC)c(N5CCC(N6CCN(C7CN(c8cccc9c8n(C)c(=O)n9C8CCC(=O)NC8=O)C7)CC6)CC5)cc4OC)ncc3Br)ccc2n1 (stereo not shown) [Example 23, 3-(4-(3-(4-(1-(4-((5-bromo-4-((5-(dimethylphosphoryl)-2-ethylquinazolin-6-yl)amino)pyrimidin-2-yl)amino)-2-ethyl-5-methoxyphenyl)piperidin-4-yl)piperazin-1-yl)azetidin-1-yl)-3-methyl-2-oxo-2,3-dihydro-1H-benzo[d]imidazol-1-yl)piperidine-2,6-dione]",74
1.3,3.8,86,"CCc1ncc2c(P(C)(C)=O)c(Nc3nc(Nc4cc(CC)c(N5CCC(N6CCN([C@H]7CCN(c8cc(F)c([C@H]9CCC(=O)NC9=O)c(F)c8)C7)CC6)CC5)cc4OC)ncc3Br)ccc2n1 (single isomer, unassigned) [Example 9]",86
